We go through ten compounds from ChEMBL document CHEMBL1147742, “Design and synthesis of photoaffinity-labeling ligands of the L-prolyl-L-leucylglycinamide binding site involved in the allosteric modulation of the dopamine receptor” (J Med Chem, 2006).

Structures are written as SMILES. Activity calls are given as the source filed them. The calls are words filed in the database; no cut-off is given here. Where a SMILES comes first, the peptide text is derived from it.

The target in one assay is D(2) dopamine receptor (Bos taurus) (UniProt P20288). Description: Stimulation of [3H]NPA binding to dopamine D2 receptor in bovine striatal membranes. Type of assay: cell membranes. Conditions: Striatum, Membrane.
Sequence of D(2) dopamine receptor (Bos taurus) (P20288 whole entry): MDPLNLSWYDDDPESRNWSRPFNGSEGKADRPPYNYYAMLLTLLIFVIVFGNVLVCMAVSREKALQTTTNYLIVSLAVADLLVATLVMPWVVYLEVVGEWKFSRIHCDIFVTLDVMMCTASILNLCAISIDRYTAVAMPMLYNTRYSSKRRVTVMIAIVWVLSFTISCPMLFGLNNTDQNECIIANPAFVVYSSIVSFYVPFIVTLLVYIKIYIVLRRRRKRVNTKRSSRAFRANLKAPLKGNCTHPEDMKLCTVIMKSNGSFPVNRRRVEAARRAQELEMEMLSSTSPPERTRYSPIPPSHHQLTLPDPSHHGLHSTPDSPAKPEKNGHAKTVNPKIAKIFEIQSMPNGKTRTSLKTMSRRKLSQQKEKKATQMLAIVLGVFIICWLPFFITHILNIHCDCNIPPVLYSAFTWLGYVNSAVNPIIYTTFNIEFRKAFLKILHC
With `[N-]=[N+]=Nc1cc(O)c(C(=O)NCCNC(=O)CN2CC[C@@H](NC(=O)[C@@H]3CCCN3)C2=O)cc1I`, the result was Active.
`[N-]=[N+]=Nc1ccc(C(=O)N[C@@H]2CN[C@H](C(=O)N[C@@H]3CCN(CC(N)=O)C3=O)C2)cc1`: the result was Active.
Still for that read-out and setting: in the case of `[N-]=[N+]=Nc1ccc(C(=O)NCCNC(=O)CN2CC[C@@H](NC(=O)[C@@H]3CCCN3)C2=O)cc1` it was “Active”; in that of `[N-]=[N+]=Nc1ccc(C(=O)N[C@H]2CN[C@H](C(=O)N[C@@H]3CCN(CC(N)=O)C3=O)C2)c(O)c1`, “Active”.
Take `NC(=O)CN1CC[C@@H](NC(=O)[C@@H]2CCCN2)C1=O`: the Activity turned out to be 51.1%.
With `[N-]=[N+]=Nc1cc(O)c(C(=O)N[C@@H]2CN[C@H](C(=O)N[C@@H]3CCN(CC(N)=O)C3=O)C2)cc1I`, the result was Active.
As to `[N-]=[N+]=Nc1ccc(C(=O)N[C@@H]2CN[C@H](C(=O)N[C@@H]3CCN(CC(N)=O)C3=O)C2)c(O)c1`, the outcome was Active.
On to `CC(C)C[C@H](NC(=O)[C@@H]1CCCN1)C(=O)NCC(N)=O` (H-Pro-Leu-Gly-NH2), for which the Activity was 24.5%.
Same read-out and setting: for `[N-]=[N+]=Nc1ccc(C(=O)NCCNC(=O)CN2CC[C@@H](NC(=O)[C@@H]3CCCN3)C2=O)c(O)c1` the value was “Active”; for `[N-]=[N+]=Nc1ccc(C(=O)N[C@H]2CN[C@H](C(=O)N[C@@H]3CCN(CC(N)=O)C3=O)C2)cc1`, “Active”.

For the next assay the target is unchanged. Description: Stimulation of [3H]NPA binding to dopamine D2 receptor from bovine striatal membranes in presence of photoaffinity-labeling agents.
Conditions: not given
In the case of `NC(=O)CN1CC[C@@H](NC(=O)[C@@H]2CCCN2)C1=O`, the result was inactive.
Regarding `CC(C)C[C@H](NC(=O)[C@@H]1CCCN1)C(=O)NCC(N)=O` (H-Pro-Leu-Gly-NH2), the outcome was inactive.
